BigSolDB 2.1

COc1ccccc1OCCNCC(O)COc1cccc2[nH]c3ccccc3c12 (stereo not given)
Conditions | solubility (mole fraction)
in PEG-400, 288.15 K | 0.0501
in PEG-400, 293.15 K | 0.0539
in PEG-400, 298.15 K | 0.0582
in PEG-400, 303.15 K | 0.062
in PEG-400, 308.15 K | 0.0661

solubility (mole fraction)
Conditions | 288.15 K | 293.15 K | 298.15 K | 303.15 K | 308.15 K
in THF | 0.0211 | 0.0235 | 0.0261 | 0.0291 | 0.0321
in acetone | 0.0125 | 0.0147 | 0.0173 | 0.0201 | 0.023
in dichloromethane | 0.00254 | 0.00334 | 0.00429 | 0.00556 | 0.00722
in ethanol | 0.000677 | 0.000846 | 0.00106 | 0.00128 | 0.00158
in ethyl acetate | 0.0015 | 0.00189 | 0.00239 | 0.00292 | 0.00362
in glycerin | 0.000273 | 0.000307 | 0.000342 | 0.00038 | 0.000421
in isopropanol | 0.000421 | 0.000555 | 0.000726 | 0.000947 | 0.00124
in methanol | 0.000767 | 0.000959 | 0.0012 | 0.00149 | 0.00185
in n-butanol | 0.000678 | 0.00079 | 0.000924 | 0.00108 | 0.00125
in n-propanol | 0.000634 | 0.000791 | 0.000996 | 0.00122 | 0.00149
in propylene glycol | 0.00138 | 0.00155 | 0.00174 | 0.00193 | 0.00213
